Assay results as given in patent US6670360B2, “Optically active pyrrolopyridazine derivatives” (Sankyo Company, Limited, priority 1999, dated 2003).

Tests used:
gastric acid secretion = experiment: Gastric acid secretion inhibition activity in pylorus-ligated rats; assay type: in vivo; settings: for 50% inhibitory dose (ID50, mg/kg) against gastric acid secretion: pylorus-ligated rats, oral administration, four hours after administration
Description: Gastric Acid Secretion Inhibition Activity After groups of rats, each group consisting of 3 to 5 rats, were fasted overnight, they were subjected to midline abdominal incision and their pylorus was ligated under anesthesia with ether. The stomach and duodenum were returned to their original positions in the body, followed by closing at the abdominal incision part. A predetermined amount of a test compound was suspended in an aqueous solution containing 0.5% of sodium carboxymethylcellulose and 0.4% of Tween 80 (Polysorbate 80). The resulting suspension was orally administered to the rats. As a control, an aqueous suspension (suspending solvent) containing 0.5% of sodium carboxymethylcellulose and 0.4% of Tween 80 (Polysorbate 80) was orally administered to other rats. Four hours after administration of the test compound or suspending solvent, the rats were sacrificed by inhalation of CO2 gas. They were subjected to abdominal incision to remove their stomach. The content of the stomach was collected in a glass-made graduated centrifuge tube. After centrifugation, the amount (ml) of the supernatant and the amount (ml) of the precipitate were measured. The precipitate of the amount exceeding 0.5 ml was regarded as coprophage and removed from the data. The supernatant (100 μl) was poured into a test tube. Distilled water (4 ml) was added to the solution, and the solution was titrated to pH 7.0 with 0.01 N sodium hydroxide. A standard acid concentration solution obtained by adding 4 ml of distilled water to 100 μl of 0.1 N hydrochloric acid was titrated in a similar manner. […]

[1] = system: Helicobacter pylori strains 9470, 9472 and 9474; experiment: Antibacterial action against Helicobacter pylori (MIC, agar dilution); assay type: cell-based; settings: 72 h, cultured at 37° C. for 3 days, microaerophilic conditions, read-out: MIC (Minimum Inhibitory Concentration) against Helicobacter pylori
Experimental: Antibacterial Action Against Helicobacter pylori The antibacterial activity of the invention compound was evaluated by using Helicobacter pylori strains 9470, 9472 and 9474 and determining MIC (Minimum Inhibitory Concentration) of the invention compound against Helicobacter pylori. Helicobacter pylori was cultured by plating for 4 days. A medium was prepared by dissolving Brain Heart Infusion Agar (product of Difco Laboratories) in a prescribed amount of distilled water, sterilizing in an autoclave, adding equine blood (product of Nippon Seibutsu Zairyo) to give its concentration of 7% and then solidifying the mixture. Under microaerophilic conditions, Helicobacter pylori which had been cultured at 37° C. for 4 days was suspended in physiological saline to give its viable count of about 10^8 CFU/ml. The suspension was then diluted to 100 times and a portion (about 10 μl) of the diluted suspension was inoculated in a medium for measuring MIC. The medium employed for measuring MIC has the same composition as the preculture medium. A compound of this invention was dissolved in dimethyl sulfoxide (DMSO) and two-fold serial dilutions were made with sterilized water. After mixing the solution and the medium in a ratio of 1:99, a solidified product in the Petri dish was employed as an MIC measuring medium. […]

[2] = target: T1, proton potassium-adenosine triphosphatase (H+·K+-ATPase) (Sus scrofa, UniProt P19156); experiment: Test on activity of proton potassium-adenosine triphosphatase (H+·K+-ATPase); assay type: biochemical; settings: microsomal fraction of swine gastric mucosal layer, pH 6.85, 37° C.; read-out: 50% inhibitory concentration (IC50) against proton-potassium-adenosine triphosphatase
T1 construct: A microsomal fraction prepared in accordance with the method of Sachs, et al; from tissue; host or cells: swine gastric mucosa, microsomal fraction (density gradient ultracentrifugation)
Experimental: Test on Activity of Proton Potassium-adenosine Triphosphatase (H^+·K^+-ATPase) A microsomal fraction prepared in accordance with the method of Sachs, et al. [J. Bio., Chem., 251, 7690 (1976)] by homogenizing a fresh gastric mucosal layer of swine and then subjecting the homogenate to density gradient ultra centrifugation was employed as a proton potassium-adenosine triphosphatase preparation. A solution (10 μl) of a test compound dissolved in dimethyl sulfoxide was added to 0.75 ml of a 70 mM tris-hydrochloric acid buffer (5 mM magnesium chloride, 20 mM potassium chloride, pH=6.85) containing 30 to 80 μg/ml, in terms of a protein concentration, of an enzyme preparation. The mixture was incubated with 200 times/min of agitation at 37° C. for 45 minutes. The enzymatic reaction was started by adding 0.25 ml of a 8 mM solution of disodium adenosine triphosphate. After this enzymatic reaction was continued for 20 minutes, 1 ml of a 10% trichloroacetic acid-activated charcoal (100 mg) solution was added to terminate the reaction. The reaction mixture was centrifuged (at 4° C. and 3000 rpm) for 15 minutes. […] The amount of inorganic phosphoric acid in a reaction mixture free from potassium chloride was also measured. By subtracting this amount from the amount of inorganic phosphoric acid in the presence of potassium chloride, proton potassium-adenosine triphosphatase activity was determined. […]

T1 sequence (P19156 2-1034 limits assumed): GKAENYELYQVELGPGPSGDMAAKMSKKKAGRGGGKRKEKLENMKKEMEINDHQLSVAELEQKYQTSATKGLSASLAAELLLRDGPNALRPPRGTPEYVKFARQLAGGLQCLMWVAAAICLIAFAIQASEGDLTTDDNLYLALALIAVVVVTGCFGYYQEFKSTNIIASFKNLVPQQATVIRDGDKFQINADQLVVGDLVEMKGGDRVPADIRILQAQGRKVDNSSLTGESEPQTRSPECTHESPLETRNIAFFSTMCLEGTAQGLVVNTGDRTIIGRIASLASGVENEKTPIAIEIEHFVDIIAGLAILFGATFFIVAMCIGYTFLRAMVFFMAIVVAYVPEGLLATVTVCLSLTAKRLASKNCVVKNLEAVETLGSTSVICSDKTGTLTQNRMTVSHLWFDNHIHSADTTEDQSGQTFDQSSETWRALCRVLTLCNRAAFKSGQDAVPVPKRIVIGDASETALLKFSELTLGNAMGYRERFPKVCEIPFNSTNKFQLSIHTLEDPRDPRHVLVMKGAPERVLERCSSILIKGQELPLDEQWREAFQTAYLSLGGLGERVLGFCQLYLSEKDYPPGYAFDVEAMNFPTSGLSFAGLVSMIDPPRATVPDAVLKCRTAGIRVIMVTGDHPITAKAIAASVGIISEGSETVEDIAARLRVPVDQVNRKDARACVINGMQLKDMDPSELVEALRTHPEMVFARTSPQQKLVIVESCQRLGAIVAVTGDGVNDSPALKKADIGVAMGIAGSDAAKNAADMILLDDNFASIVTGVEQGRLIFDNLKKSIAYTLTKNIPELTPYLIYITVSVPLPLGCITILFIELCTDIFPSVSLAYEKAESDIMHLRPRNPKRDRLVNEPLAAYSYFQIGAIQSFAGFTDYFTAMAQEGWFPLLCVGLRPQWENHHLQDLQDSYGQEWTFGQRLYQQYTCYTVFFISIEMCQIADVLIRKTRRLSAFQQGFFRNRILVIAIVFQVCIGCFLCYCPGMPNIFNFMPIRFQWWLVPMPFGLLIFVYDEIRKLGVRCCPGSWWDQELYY
T1 sequence (P18434 whole entry partner): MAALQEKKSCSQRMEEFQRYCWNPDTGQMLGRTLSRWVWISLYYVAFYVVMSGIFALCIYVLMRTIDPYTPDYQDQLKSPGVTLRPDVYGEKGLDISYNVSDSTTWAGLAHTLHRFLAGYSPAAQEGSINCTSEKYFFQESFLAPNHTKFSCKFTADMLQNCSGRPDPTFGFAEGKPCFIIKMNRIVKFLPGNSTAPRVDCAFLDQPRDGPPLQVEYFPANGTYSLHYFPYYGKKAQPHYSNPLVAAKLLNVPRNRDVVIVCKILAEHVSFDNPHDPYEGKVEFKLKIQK

| MIC [1] | IC50 [2] | SMILES | 50% inhibitory dose (ID50, mg/kg) against gastric acid secretion (gastric acid secretion) | effects on gastric acid secretion relative to its racemate (times stronger) (gastric acid secretion; from ID50 values of Table 2, versus racemate (Compound A)) |
| --- | --- | --- | --- | --- |
| – | – | Cc1c(C)n(CC2CC2C)c2c(OCc3ccc(F)cc3)nncc12 (racemic) [Compound A, 7-(4-Fluorobenzyloxy)-1-[(E)-2-methylcyclopropylmethyl]-2,3-dimethylpyrrolo[2,3-d]pyridazine (racemate), reference compound] | 1.64 mg/kg | – |
| ≤ 12.5 mg/L | ≤ 0.295 µM | Cc1c(C)n(C[C@H]2C[C@@H]2C)c2c(OCc3ccc(F)cc3)nncc12 [Example 1, 7-(4-Fluorobenzyloxy)-2,3-dimethyl-1-[(1S,2S)-2-methylcyclopropylmethyl]pyrrolo[2,3-d]pyridazine] | 0.52 mg/kg | about 3 times |
